Laboratory results published in patent US7378440B2, “Substituted benzoylureido-o-benzoylamides, process for their preparation and their use” (Sanofi-Aventis Deutschland GmbH, priority 2003, dated 2008).
pIC50: −log10 of the molar value.

How the values were obtained:
[1] = molecular target: T1, human glycogen phosphorylase a (Homo sapiens, UniProt P06737); test: Glycogen phosphorylase a activity assay; type: biochemical; conditions: inhibition of GPa measured in reverse direction (glycogen synthesis from glucose 1-phosphate, liberated phosphate, absorption 820 nm)
T1 sequence (P06737 1-847): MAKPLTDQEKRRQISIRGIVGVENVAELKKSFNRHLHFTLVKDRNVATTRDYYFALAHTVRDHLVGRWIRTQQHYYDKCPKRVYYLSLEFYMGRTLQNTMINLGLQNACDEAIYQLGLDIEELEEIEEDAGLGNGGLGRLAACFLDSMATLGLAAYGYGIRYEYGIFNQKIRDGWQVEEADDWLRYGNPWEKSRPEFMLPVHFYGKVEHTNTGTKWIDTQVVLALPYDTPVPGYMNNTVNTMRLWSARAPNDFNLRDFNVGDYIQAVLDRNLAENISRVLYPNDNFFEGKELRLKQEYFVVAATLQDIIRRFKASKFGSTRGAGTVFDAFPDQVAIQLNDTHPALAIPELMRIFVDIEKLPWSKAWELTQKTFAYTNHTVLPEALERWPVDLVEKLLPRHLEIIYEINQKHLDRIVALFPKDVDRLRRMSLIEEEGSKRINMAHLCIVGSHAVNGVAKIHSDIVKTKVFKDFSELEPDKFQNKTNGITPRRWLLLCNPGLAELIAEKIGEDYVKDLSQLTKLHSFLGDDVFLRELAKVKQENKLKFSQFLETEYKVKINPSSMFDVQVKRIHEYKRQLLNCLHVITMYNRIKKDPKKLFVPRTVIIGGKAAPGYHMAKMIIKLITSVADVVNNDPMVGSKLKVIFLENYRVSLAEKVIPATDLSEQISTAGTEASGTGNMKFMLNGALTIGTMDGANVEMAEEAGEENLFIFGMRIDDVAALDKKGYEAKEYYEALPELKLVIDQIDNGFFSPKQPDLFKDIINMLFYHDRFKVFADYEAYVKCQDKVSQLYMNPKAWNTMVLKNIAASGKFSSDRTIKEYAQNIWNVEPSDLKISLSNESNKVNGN
Procedure: Glycogen Phosphorylase a Activity Assay
The effect of compounds on the activity of the active form of glycogen phosphorylase (GPa) was measured in the reverse direction by following the synthesis of glycogen from glucose 1-phosphate by determining the liberation of inorganic phosphate. All the reactions were carried out as duplicate determinations in microtiter plates with 96 wells (Half Area Plates, Costar No 3696), measuring the change in absorption owing to the formation of the reaction product at the wavelength specified hereinafter in a Multiskan Ascent Elisa Reader (Lab Systems, Finland).
In order to measure the GPa enzymic activity in the reverse direction, the general method of Engers et al. (Engers H D, Shechosky S, Madsen N B, Can J Biochem 1970 July;48(7):746-754) was used to measure the conversion of glucose 1-phosphate into glycogen and inorganic phosphate, with the following modifications: human glycogen phosphorylase a (for example with 0.76 mg of protein/ml (Aventis Pharma Deutschland GmbH), dissolved in buffer solution E (25 mM β-glycerophosphate, pH 7.0, 1 mM EDTA and 1 mM dithiothreitol) was diluted with buffer T (50 mM Hepes, pH 7.0, 100 mM KCl, 2.5 mM EDTA, 2.5 mM MgCl2.6H2O) and addition of 5 mg/ml glycogen to a concentration of 10 μg of protein/ml. Test substances were prepared as 10 mM solution in DMSO and diluted to 50 μM with buffer solution T. To 10 μl of this solution were added 10 μl of 37.5 mM glucose, dissolved in buffer solution T, and 5 mg/ml glycogen, plus 10 μt of a solution of human glycogen phosphorylase a (10 μg of protein/ml) and 20 μl of glucose 1-phosphate, 2,5 mM. The baseline glycogen phosphorylase a activity in the absence of test substance was determined by adding 10 μl of buffer solution T (0.1% DMSO). The mixture was incubated at room temperature for 40 minutes, and the liberated […] was measured by the general method of Drueckes et al. (Drueckes P, Schinzel R, Palm D, Anal Biochem 1995 Sep. 1;230(1):173-177) with the following modifications: 50 μl of a stop solution of 7.3 mM ammonium molybdate, 10.9 mM zinc acetate, 3.6% ascorbic acid, 0.9% SDS are added to 50 μl of the enzyme mixture. After incubation at 45° C. for 60 minutes, the absorption at 820 nm was measured. To determine the background absorption, in a separate mixture the stop solution was added immediately after addition of the glucose 1-phosphate solution. […]

Structure (SMILES)	pIC50 [1]	melting point
COC(=O)[C@H]1CCCN1C(=O)c1ccccc1NC(=O)NC(=O)c1cc(F)c(F)cc1Cl [Example 4]	6.24	
O=C(NC(=O)c1cc(F)c(F)cc1Cl)Nc1ccccc1C(=O)N1CCC1C(=O)O (stereo not shown) [Example 5]	7.52	99 °C
O=C(NC(=O)c1cc(F)c(F)cc1Cl)Nc1ccccc1C(=O)N1CC(F)(F)CC1C(=O)O (stereo not shown) [Example 6]	5.85	102 °C
O=C(NC(=O)c1cc(F)c(F)cc1Cl)Nc1ccccc1C(=O)N1C2CCCCC2C[C@H]1C(=O)O (stereo partly shown) [Example 7]	5.40	125 °C

Now from value to compound:

pIC50 [1]	melting point	Structure (SMILES)
7.52	123.5 °C	O=C(NC(=O)c1cc(F)c(F)cc1Cl)Nc1ccccc1C(=O)N1CCC[C@@H]1C(=O)O [Example 1, R-1-{2-[3-(2-Chloro-4,5-difluorobenzoyl)ureido]benzoyl}pyrrolidine-2-carboxylic acid]
5.68	128.4 °C	O=C(NC(=O)c1cc(F)c(F)cc1Cl)Nc1ccccc1C(=O)N1CCC[C@H]1C(=O)O [Example 2]
6.92	193.1 °C	O=C(NC(=O)c1cc(F)c(F)cc1Cl)Nc1ccccc1C(=O)N1CCCC1C(=O)O (stereo not shown) [Example 3]
